From patent US20230121721A1, “MONOACYLGLYCEROL LIPASE INHIBITORS” (STICHTING HET NEDERLANDS KANKER INSTITUUT - ANTONI VAN …, priority 2020, published 2023) come the findings set out here.

In this assay the target is T1, hMAGL (MAGL-overexpressing membrane preparations from transiently transfected HEK293T cells) (Homo sapiens, UniProt Q99685).
T1 construct: expressed in transfected cells; host or cells: HEK293T (transient transfection), membrane preparations
T1 sequence (Q99685 1-303): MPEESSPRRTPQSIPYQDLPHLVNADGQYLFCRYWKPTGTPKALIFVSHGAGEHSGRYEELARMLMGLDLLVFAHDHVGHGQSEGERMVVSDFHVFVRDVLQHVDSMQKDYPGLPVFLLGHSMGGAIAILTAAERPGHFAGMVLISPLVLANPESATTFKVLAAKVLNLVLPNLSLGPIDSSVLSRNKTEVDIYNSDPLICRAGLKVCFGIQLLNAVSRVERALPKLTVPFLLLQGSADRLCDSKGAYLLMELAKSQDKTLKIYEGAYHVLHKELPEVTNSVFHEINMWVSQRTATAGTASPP
As to the kind of experiment: MAGL activity assay (2-AG hydrolysis, glycerol coupled to Amplifu Red fluorescence). The conditions noted are these: hMAGL-overexpressing HEK293T membranes, 25 μM 2-AG substrate, 20 min. inhibitor incubation. Format: biochemical.

Compound `CCOC(=O)C[S+]([O-])c1ccc(C(=O)N2CCN(c3ccc(C(F)(F)F)cc3)CC2)cc1[N+](=O)[O-]` (stereo not drawn) [Example 16, Ethyl 2-((2-nitro-4-(4-(4-(trifluoromethyl)phenyl)piperazine-1-carbonyl)phenyl)sulfinyl)acetate] showed an IC50 of 589 nM. Under `CCOC(=O)C[S+]([O-])c1ccc(C(=O)N2CCN(c3cccc([N+](=O)[O-])c3)CC2)cc1[N+](=O)[O-]` (stereo not drawn) [Example 19, Ethyl 2-((2-nitro-4-(4-(3-nitrophenyl)piperazine-1-carbonyl)phenyl)sulfinyl)acetate] stands 2570 nM; under `CCOC(=O)C[S+]([O-])c1ccc(C(=O)N2CCN(c3cccc(-c4ccccc4)c3)CC2)cc1[N+](=O)[O-]` (stereo not drawn) [Example 20, Ethyl 2-((4-(4-([1,1′-biphenyl]-3-yl)piperazine-1-carbonyl)-2-nitrophenyl)sulfinyl)acetate], 1350 nM.

Regarding `CCOC(=O)C[S+]([O-])c1ccc(C(=O)N2CCN(c3ccc(Cl)c(Cl)c3)CC2)cc1[N+](=O)[O-]` (stereo not drawn) [Example 22, Ethyl 2-((4-(4-(3,4-dichlorophenyl)piperazine-1-carbonyl)-2-nitrophenyl)sulfinyl)acetate], the half-maximal inhibitory concentration (IC50) is 2570 nM. Under `CCOC(=O)C[S+]([O-])c1ccc(C(=O)N2CCN(c3ccc(Cl)cc3Cl)CC2)cc1[N+](=O)[O-]` (stereo not drawn) [Example 23, Ethyl 2-((4-(4-(2,4-dichlorophenyl)piperazine-1-carbonyl)-2-nitrophenyl)sulfinyl)acetate] stands 1950 nM. Under `CCOC(=O)C[S+]([O-])c1ccc(C(=O)N2CCN(c3c(Cl)cccc3Cl)CC2)cc1[N+](=O)[O-]` (stereo not drawn) [Example 24, Ethyl 2-((4-(4-(2,6-dichlorophenyl)piperazine-1-carbonyl)-2-nitrophenyl)sulfinyl)acetate] stands 1820 nM; under `CCOC(=O)C[S+]([O-])c1ccc(C(=O)N2CCN(c3cccc(F)c3)[C@@H](C)C2)cc1[N+](=O)[O-]` (stereo partly drawn) [Example 25, Ethyl 2-((4-((S)-4-(3-fluorophenyl)-3-methylpiperazine-1-carbonyl)-2-nitrophenyl)sulfinyl)acetate], 155 nM. Compound `CCOC(=O)C[S+]([O-])c1ccc(C(=O)N2CCN(c3cccc(C(F)(F)F)c3)[C@H](C)C2)cc1[N+](=O)[O-]` (stereo partly drawn) [Example 30, Ethyl 2-((4-((R)-3-methyl-4-(3-(trifluoromethyl)phenyl)piperazine-1-carbonyl)-2-nitrophenyl)sulfinyl)acetate] showed a 50% inhibitory concentration (IC50) of 115 nM. Under `CCOC(=O)C[S+]([O-])c1ccc(C(=O)N2CCN(c3cccc(C(F)(F)F)c3)[C@@H](C)C2)cc1[N+](=O)[O-]` (stereo partly drawn) [Example 31, Ethyl 2-((4-((S)-3-methyl-4-(3-(trifluoromethyl)phenyl)piperazine-1-carbonyl)-2-nitrophenyl)sulfinyl)acetate] stands 200 nM; under `CCN(C)C(=O)C[S+]([O-])c1ccc(C(=O)N2CCN(c3cccc(Cl)c3)[C@H](C)C2)cc1[N+](=O)[O-]` (stereo partly drawn) [Example 33, 2-((4-((R)-4-(3-Chlorophenyl)-3-methylpiperazine-1-carbonyl)-2-nitrophenyl)sulfinyl)-N-ethyl-N-methylacetamide], > 10000 nM. Under `C[C@@H]1CN(C(=O)c2ccc([S+]([O-])CC(=O)OCCCO)c([N+](=O)[O-])c2)CCN1c1cccc(Cl)c1` (stereo partly drawn) [Example 41, 3-Hydroxypropyl 2-((4-((R)-4-(3-chlorophenyl)-3-methylpiperazine-1-carbonyl)-2-nitrophenyl)sulfinyl)acetate] stands 34.7 nM. Under `CCOC(=O)C[S+]([O-])c1ccc(C(=O)N2CCN(c3cccc(Cl)c3)CC2C)cc1F` (stereo not drawn) [Example 44, Ethyl 2-((4-(4-(3-chlorophenyl)-2-methylpiperazine-1-carbonyl)-2-fluorophenyl)sulfinyl)acetate] stands 27.5 nM. In turn, `CCOC(=O)C[S+]([O-])c1ccc(C(=O)N2CCN(c3cccc(Cl)c3)C(C)(C)C2)cc1F` (stereo not drawn) [Example 47, Ethyl 2-((4-(4-(3-chlorophenyl)-3,3-dimethylpiperazine-1-carbonyl)-2-fluorophenyl)sulfinyl)acetate] gave an IC50 of 46.8 nM. Under `CCOC(=O)C[S+]([O-])c1ccc(C(=O)N2CCN(c3cccc(Cl)c3)CC2(C)C)cc1F` (stereo not drawn) [Example 48, Ethyl 2-((4-(4-(3-chlorophenyl)-2,2-dimethylpiperazine-1-carbonyl)-2-fluorophenyl)sulfinyl)acetate] stands 57.5 nM; under `CCOC(=O)C[S+]([O-])c1c(F)cc(C(=O)N2CCN(c3cccc(Cl)c3)[C@H](C)C2)cc1F` (stereo partly drawn) [Example 106, Ethyl 2-((4-((R)-4-(3-chlorophenyl)-3-methylpiperazine-1-carbonyl)-2,6-difluorophenyl)sulfinyl)acetate], 282 nM.

By IC50 is commonly meant the midpoint of a concentration-inhibition curve. Low values mean greater potency in that assay, high ones weaker potency in that assay.
